Measurements published in patent US11897850B1, “N′-(2-(5-(4-chlorophenyl)-1,3,4-oxadiazol-2-ylthio)acetoxy)-4-methoxybenzimidamide as an antimicrobial compound” (KING FAISAL UNIVERSITY, priority 2023, dated 2024).

Assays:
Assay type in all cases: cell-based
Bacillus cereus = assay: Agar plate disc-diffusion, antibacterial activity by inhibition zone; conditions: nutrient agar, 37° C., 48 h
Procedure: (§1) The agar plate disc-diffusion method was applied. […] The discs were then placed onto the surface of agar plates (nutrient agar for bacteria and Sabouraud's dextrose agar for fungi) seeded with the test organism. Each plate contained 15 mL of the agar medium, previously seeded with 0.2 mL of the broth culture of each organism pregrown for 18 h. The plates were incubated at 37° C. for 48 h, and 72 h for fungi. The inhibition zones was measured in mm. Discs impregnated with DMSO were used as a control, and its inhibition zone was subtracted from the tested compound actual inhibition zone.
(§2) The results of the antimicrobial testing can be observed in Tables 1 and 2, below, using ciprofloxacin as a reference.

Escherichia coli = assay: as above; conditions: nutrient agar, 37° C., 48 h
Procedure: as §1, §2

Pseudomonas aeruginosa = assay: as above; conditions: nutrient agar, 37° C., 48 h
Procedure: as §1, §2

Staphylococcus aureus = assay: as above; conditions: nutrient agar, 37° C., 48 h
Procedure: as §1, §2

Aspergillus flavus = assay: Agar plate disc-diffusion, antifungal activity by inhibition zone; conditions: Sabouraud's dextrose agar, 72 h
Procedure: as §1, §2

[1] = system: Chrysosporium keratinophilum; assay: as above; conditions: Sabouraud's dextrose agar, 72 h
Procedure: The agar plate disc-diffusion method was applied. Sterilized filter papers (6 mm in diameter) were wetted with 10 μL of a solution N′-(2-(5-(4-chlorophenyl)-1,3,4-oxadiazol-2-ylthio)acetoxy)-4-methoxybenzimidamide (3) to be tested, containing 10 mg/mL in DMSO, and the discs were allowed to air dry. The discs were then placed onto the surface of agar plates (nutrient agar for bacteria and Sabouraud's dextrose agar for fungi) seeded with the test organism. Each plate contained 15 mL of the agar medium, previously seeded with 0.2 mL of the broth culture of each organism pregrown for 18 h. The plates were incubated at 37° C. for 48 h, and 72 h for fungi. The inhibition zones was measured in mm. Discs impregnated with DMSO were used as a control, and its inhibition zone was subtracted from the tested compound actual inhibition zone.
as §2

[2] = A = concentration of comp. = 10,000 μL
[3] = B = concentration of comp. = 30,000 μL
[4] = C = concentration of comp. = 50,000 μL

Compound | inhibition zone (Bacillus cereus; [2]) | inhibition zone (Bacillus cereus; [3]) | inhibition zone (Bacillus cereus; [4]) | inhibition zone (Escherichia coli; [2]) | inhibition zone (Escherichia coli; [3]) | inhibition zone (Escherichia coli; [4]) | inhibition zone (Pseudomonas aeruginosa; [2]) | inhibition zone (Pseudomonas aeruginosa; [3]) | inhibition zone (Pseudomonas aeruginosa; [4]) | inhibition zone (Staphylococcus aureus; [2]) | inhibition zone (Staphylococcus aureus; [3]) | inhibition zone (Staphylococcus aureus; [4]) | inhibition zone (Aspergillus flavus; [2]) | inhibition zone (Aspergillus flavus; [3]) | inhibition zone (Aspergillus flavus; [4]) | inhibition zone [1, 2] | inhibition zone [1, 3] | inhibition zone [1, 4]
O=C(O)c1cn(C2CC2)c2cc(N3CCNCC3)c(F)cc2c1=O [Cip., ciprofloxacin] | 29 mm | 30 mm | 42 mm | 30 mm | 39 mm | 60 mm | 29 mm | 30 mm | 53 mm | 43 mm | 44 mm | 53 mm | 29 mm | 30 mm | 42 mm | 29 mm | 30 mm | 53 mm
COc1ccc(/C(N)=N/OC(=O)CSc2nnc(-c3ccc(Cl)cc3)o2)cc1 [Compound 3, N′-(2-(5-(4-chlorophenyl)-1,3,4-oxadiazol-2-ylthio)acetoxy)-4-methoxybenzimidamide] | 28 mm | 31 mm | 39 mm | 29 mm | 38 mm | 47 mm | 24 mm | 28 mm | 40 mm | 20 mm | 24 mm | 36 mm | 21 mm | 22 mm | 35 mm | 24 mm | 28 mm | 41 mm
